The text below walks through data of patent EP0411733A2, “11-Beta-aryle-gona-4,9-dien-3-ones” (SCHERING AKTIENGESELLSCHAFT, priority 1989, dated 1991).

The assay concerns weibliche gravide Raten. The assay is described as follows: abortive effect (inhibition of fertility) in pregnant rats, subcutaneous treatment. It is filed as in vivo. To be noted: Gesamtdosis 2 mg/Tier/4d, subkutan in Erdnußöl, 5. bis 8. Graviditätstag, Autopsie am 20. Graviditätstag; for Fertilitätshemmung absol.: N = 6. The source says: Zur Kennzeichnung der antigestagenen Wirkung dient die tierexperimentell ermittelt abortive Wirkung der Substanzen. Zu diesem Zweck wurden weibliche gravide Raten (positiver Spermiennachweis = 1 Graviditätstag) im Gewicht zwischen 180 und 200 g am 5. bis 8. Graviditätstag mit der Testverbindung in Erdnußöl suspendiert subkutan behandelt. Nach Autopsie am 20. Graviditätstag wurden die Uterie untersucht. Dabei wurde die Anzahl der graviden Weibchen und die durchschnittliche Zahl der Feten pro gravides Tier festgestellt. Der Hemmeffekt wurde wie folgt berechnet: [formula]

Molecule `CO[C@@]12C[C@@H]1C[C@H]1[C@@H]3CCC4=CC(=O)CCC4=C3[C@@H](c3ccc(C(C)=O)cc3)C[C@@]12C` [11β-(4-Acetylphenyl)-17β-methoxy-16α,17α-methylen-estra-4,9-dien-3-on] came in with a Fertilitätshemmung rel. % of 100% and a Fertilitätshemmung absol. of 6. Molecule `COCC1(OC)CCC2C3CCC4=CC(=O)CCC4=C3C(c3ccc(C(C)=O)cc3)CC21C` (stereo not drawn) [11β-(4-Acetylphenyl)-17β-methoxy-17α-methoxymethyl-estra-4,9-dien-3-on] registered a Fertilitätshemmung rel. % of 100% and a Fertilitätshemmung absol. of 6. The matching figures for `CC#CC1(OC)CCC2C3CCC4=CC(=O)CCC4=C3C(c3ccc(C(C)=O)cc3)CC21C` (stereo not drawn) [11β-(4-Acetylphenyl)-17β-methoxy-17α-propinyl-13-methyl-gona-4,9-dien-3-on]: 100% and 6. Consider `CC#CC1(OC)CCC2C3CCC4=CC(=O)CCC4=C3C(c3ccc(N(C)C)cc3)CC21C` (stereo not drawn) [11β-(4-Dimethylaminophenyl)-17β-methoxy-17α-propinyl-13-methyl-gona-4,9-dien-3-on], for which the Fertilitätshemmung rel. % is reported as 100% and the Fertilitätshemmung absol. is on record as 6. On the same counts, the results for `C#C[C@]1(OC)CC[C@H]2[C@@H]3CCC4=CC(=O)CCC4=C3[C@@H](c3ccc(C(C)=O)cc3)C[C@@]21C` [17β-Methoxy-17α-ethinyl-11β-acetylphenyl, 11β-(4-Acetylphenyl)-17α-ethinyl-17β-methoxy-13-methyl-gona-4,9-dien-3-on] are 100% and 6. With `CC#C[C@]1(O)CC[C@H]2[C@@H]3CCC4=CC(=O)CCC4=C3[C@@H](c3ccc(N(C)C)cc3)C[C@@]21C` [RU 486, 11β-(4-Dimethylaminophenyl)-17β-hydroxy-17α-(prop-1-inyl)-4,9-estradien-3-on, reference compound], the Fertilitätshemmung rel. % was 80%.
